Laboratory results reported in patent US12703836B2, “Mixture of compounds with high molecular weights, obtained from sugar cane wax (Saccharum officinarum L.)” (CENTRO NACIONAL DE INVESTIGACIONES CIENTÍFICAS, priority 2021, dated 2026).

Key:
[1] = tested on: Mongolian gerbils with global brain Ischemia/Reperfusion (I/R); test: Locomotor activity (open field) after global cerebral ischemia/reperfusion; type: in vivo; conditions: 24 hours post-ischemia, oral HMWS 200, AcGS 132, AlcG 40, AldG 28, AcGL 200, ASA 60 mg/kg
Excerpt: (§1) For the evaluation of the neuroprotective effect of the mixture of high molecular weight substances, the object of the present invention, an experimental model of global cerebral ischemia by occlusion and reperfusion of the carotid arteries was used. The composition of High Molecular Weight Substances (HMWS) obtained in example 1 was subjected to a preclinical test with animals, in which its pharmacological effect was compared with the effects of pure extracts of Fatty Acids in the form of Salts (AcGS), fatty alcohols (AlcG) and high molecular weight aldehydes (AldG), which were administered in the dose equivalent to the proportion in which each one is present in 200 mg/kg of the HMWS Active Ingredient. Furthermore, the effect of HMWS was compared with the effect of pure free fatty acid (AcGL) extract administered at equal doses. […] Once the quarantine was over, the gerbils were distributed into 8 groups: a negative control that only received vehicle and cerebral ischemia (CI) was not induced and 7 groups with induced CI. […] All treatments were administered orally through intragastric intubation (0.5 mL/70 g body weight) 1 hour prior to induction of ischemia. […] For 6 minutes, the number of times the gerbils crossed the different quadrants with their front legs and the number of times they stopped or leaned was quantified.

[2] = tested on: pyramidal cells of the CA1 area of the hippocampus; test: Histological score of brain damage after ischemia/reperfusion; type: in vivo, Mongolian gerbils; conditions: gerbils, oral HMWS 200, AcGS 132, AlcG 40, AldG 28, AcGL 200, ASA 60 mg/kg
Excerpt: For the evaluation of the neuroprotective effect of the mixture of high molecular weight substances, the object of the present invention, an experimental model of global cerebral ischemia by occlusion and reperfusion of the carotid arteries was used. The composition of High Molecular Weight Substances (HMWS) obtained in example 1 was subjected to a preclinical test with animals, in which its pharmacological effect was compared with the effects of pure extracts of Fatty Acids in the form of Salts (AcGS), fatty alcohols (AlcG) and high molecular weight aldehydes (AldG), which were administered in the dose equivalent to the proportion in which each one is present in 200 mg/kg of the HMWS Active Ingredient. Furthermore, the effect of HMWS was compared with the effect of pure free fatty acid (AcGL) extract administered at equal doses. Once the quarantine was over, the gerbils were distributed into 8 groups: a negative control that only received vehicle and cerebral ischemia (CI) was not induced and 7 groups with induced CI. […] All treatments were administered orally through intragastric intubation (0.5 mL/70 g body weight) 1 hour prior to induction of ischemia. […] Sections from each brain were evaluated by a light microscopy scoring system for determination of damage to the pyramidal cells of the CA1 area of the hippocampus with bilateral averages. […]

[3] = tested on: Mongolian gerbils with global brain Ischemia/Reperfusion (I/R); test: Clinical symptom (neurological function) score after global cerebral ischemia by bilateral carotid occlusion/reperfusion; type: in vivo; conditions: 4 hours after I/R
Excerpt: as §1

[4] = tested on: rabbits with spinal cord damage induced by Ischemia/Reperfusion (I/R); test: Neurological deficit score in spinal cord ischemia/reperfusion (abdominal aorta occlusion); type: in vivo, New Zealand rabbits; conditions: lower = better
Description: The neuroprotective effect of the HMWS mixture, object of the present invention, was also investigated using an experimental model of induction of ischemia in the spinal cord. […] Furthermore, the effect of HMWS was compared with that of pure extract of free fatty acids (AcGL) administered at equal doses.
Male New Zealand rabbits (1.8-2.2 kg) were used, which were adapted for 15 days to laboratory conditions (temperature of 20 to 25° C., relative humidity of 60±5%, light/dark cycles of 12 hours), with free access to water and food.
The substances HMWS, AcGS, AlcG, AldG, AcGL and aspirin were prepared as suspensions in an acacia/water vehicle (1%). Once the quarantine was completed, the rabbits were distributed into 8 groups: a negative control that only received vehicle and was not induced ischemia and 7 groups with spinal cord ischemia: a positive control treated only with the vehicle, and 6 groups were treated with HMWS (200 mg/kg), AcGS (132 mg/kg), AlcG (40 mg/kg), AldG (28 mg/kg), AcGL (200 mg/kg), and aspirin (2 mg/kg) as reference substance. […]
For the induction of ischemia in the spinal cord, the rabbits were anesthetized with thiopental (20 mg/kg i.v.). […] At 4 and 24 hours of reperfusion, the neurological deficit of the animals was blindly evaluated by 2 independent observers (according to Zivin et al., 1982). […]

CC(=O)Oc1ccccc1C(=O)O [ASA, aspirin]
Crosses (#), open field locomotor activity ([1]; 6 minutes, mean ± SEM, positive control 355.5 ± 12.4, negative 250.8 ± 14.8): 286.2 ± 15.2 #
Inhibition (%) of hyperlocomotion (crosses) [1]: 66.2%
Histologic Score (brain, CA1, scale 0-4) ([2]; 24 hours reperfusion, mean ± SEM, positive control 2.96 ± 0.07): 2.00 ± 0.15
Inhibition (%) of histological score of brain damage ([2]; I/R): 32.4%
Inhibition (%) of clinical symptom score ([3]; oral HMWS 200, AcGS 132, AlcG 40, AldG 28, AcGL 200, ASA 60 mg/kg, vs positive control): 86.6%
SC score (clinical symptoms, McGraw scale 0-5) ([3]; single oral dose 1 hour before ischemia: HMWS (example 1) 200, AcGS 132, AlcG 40, AldG 28, AcGL 200, ASA 60 mg/kg, mean ± SEM, positive control 3.00 ± 0.52): 0.40 ± 0.35
Score (neurological deficit) 4 h ([4]; 4 h of reperfusion, oral for 10 days: HMWS (example 2) 200, AcGS 132, AlcG 40, AldG 28, AcGL 200, ASA 2 mg/kg, positive control 0.30 ± 0.17, negative 2 ± 0): 0.90 ± 0.25
Score (neurological deficit) 24 h ([4]; 24 h of reperfusion, oral for 10 days: HMWS 200, AcGS 132, AlcG 40, AldG 28, AcGL 200, ASA 2 mg/kg, positive control 0.15 ± 0.1, negative 2 ± 0): 0.50 ± 0.24
